Test [1] concerns PC43-10 cells (hRFC). The note with it: read-out: IC50 growth inhibition PC43-10; cited from earlier work.
Test [2] concerns KB human nasopharyngeal carcinoma cells (hRFC/FRα/hPCFT). The experiment in a line: Growth inhibition assay, KB human tumor cells. The note with it: 96 h, read-out: IC50 growth inhibition KB.
Test [3] has as its target FRβ (Homo sapiens, UniProt P14207). In words: FR binding assay, competition with [3H]folic acid on D4 cells. The note with it: D4 CHO cells, pH 7.4, [3H]folic acid 50 nM, 0°C; Figure 3, in words.
For test [4], the target named is FRα (Homo sapiens, UniProt P15328). The experiment in a line: FR binding assay, competition with [3H]folic acid on RT16 cells. The note with it: RT16 CHO cells, pH 7.4, [3H]folic acid 50 nM, 0°C; Figure 3, in words.
FRα, sequence (P15328 25-257): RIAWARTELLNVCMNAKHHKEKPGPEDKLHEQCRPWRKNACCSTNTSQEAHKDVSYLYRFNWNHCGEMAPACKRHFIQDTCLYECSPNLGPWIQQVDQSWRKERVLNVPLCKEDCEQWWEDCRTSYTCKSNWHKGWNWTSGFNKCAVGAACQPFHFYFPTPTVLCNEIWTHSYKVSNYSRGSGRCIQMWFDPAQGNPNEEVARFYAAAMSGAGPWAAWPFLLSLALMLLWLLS

The IC50 is the concentration needed to halve the response being measured.

FRβ, sequence (P14207 17-255): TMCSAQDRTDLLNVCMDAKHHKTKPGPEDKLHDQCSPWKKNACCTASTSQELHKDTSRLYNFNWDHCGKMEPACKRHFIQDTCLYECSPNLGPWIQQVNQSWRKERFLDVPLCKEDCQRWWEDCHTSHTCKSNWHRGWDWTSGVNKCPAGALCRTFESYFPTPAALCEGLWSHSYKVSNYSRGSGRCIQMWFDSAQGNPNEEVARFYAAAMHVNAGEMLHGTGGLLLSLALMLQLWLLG

Regarding `Nc1nc2[nH]c(CCCCc3ccc(C(=O)N[C@@H](CCC(=O)O)C(=O)O)cc3)cc2c(=O)[nH]1` [2b], in test [1], the IC50 was more than 1000 nM.

Take `Nc1nc2[nH]c(CCCCCCCC(=O)O)cc2c(=O)[nH]1` [7g, 8-(2-Amino-4-oxo-4,7-dihydro-3H-pyrrolo[2,3-d]pyrimidin-6-yl)octanoic acid]: the IC50 in test [2] is more than 1000 nM.

`Nc1nc2[nH]c(CCCCCCCCC(=O)N[C@@H](CCC(=O)O)C(=O)O)cc2c(=O)[nH]1` [3d, (S)-2-(9-(2-Amino-4-oxo-4,7-dihydro-3H-pyrrolo[2,3-d]pyrimidin-6-yl)nonanamido)pentanedioic acid]: the “Relative binding affinity to FRβ (folic acid = 1.0)” value in test [3] is “approximating those for compounds 2a and 2b”. In addition, the “Relative binding affinity to FRα (folic acid = 1.0)” value in test [4] is “approximating those for compounds 2a and 2b”.

`Nc1nc2[nH]c(CCCCCCC(=O)O)cc2c(=O)[nH]1` [7f, 7-(2-Amino-4-oxo-4,7-dihydro-3H-pyrrolo[2,3-d]pyrimidin-6-yl)heptanoic acid]: the half-inhibitory concentration (IC50) in test [2] was more than 1000 nM.

As for `Nc1nc2[nH]c(CCCCCC(=O)O)cc2c(=O)[nH]1` [7e, 6-(2-Amino-4-oxo-4,7-dihydro-3H-pyrrolo[2,3-d]pyrimidin-6-yl)hexanoic acid], the IC50 in test [2] was more than 1000 nM.

Turning to `Nc1nc2[nH]c(CCCCCCCCC(=O)O)cc2c(=O)[nH]1` [7h, 9-(2-Amino-4-oxo-4,7-dihydro-3H-pyrrolo[2,3-d]pyrimidin-6-yl)nonanoic acid], the “Relative binding affinity to FRα (folic acid = 1.0)” value in test [4] was “detectable binding”. Also, the IC50 in test [2] was more than 1000 nM.
